{"source": "patent US6503881B2", "about": "(priority 1996, dated 2003)", "key": {"K. pneumoniae": {"tested_on": "K. pneumoniae", "assay_type": "cell-based", "conditions": "for MIC Alone: agent alone; for MBI 26 MIC, +Erythro.: in combination with erythromycin"}, "A. calcoaceticus": {"tested_on": "A. calcoaceticus", "assay": "Overcoming inherent resistance, MIC alone and in combination (agarose dilution)", "assay_type": "cell-based", "conditions": "A. calcoaceticus AC001"}}, "note": "Where two headings read alike, the source gives them in different places.", "data": [{"substance": "KWKSFIKKLTSAAKKVVTTAKPLISS [MBI 26]", "values": [{"measurement": "MIC Alone", "setting": "K. pneumoniae; K. pneumoniae KP001", "value": 16, "unit": "µg/mL"}, {"measurement": "MBI 26 MIC, +Erythro.", "setting": "K. pneumoniae; K. pneumoniae KP001", "value": 8, "unit": "µg/mL"}, {"measurement": "MIC Alone", "setting": "K. pneumoniae; K. pneumoniae KP002", "value": 64, "unit": "µg/mL"}, {"measurement": "MBI 26 MIC, +Erythro.", "setting": "K. pneumoniae; K. pneumoniae KP002", "value": 32, "unit": "µg/mL"}, {"measurement": "MIC Alone", "setting": "A. calcoaceticus; agent alone", "value": 16, "unit": "µg/mL"}, {"measurement": "MBI 26 MIC, +Erythro.", "setting": "A. calcoaceticus; in combination with erythromycin", "value": 8, "unit": "µg/mL"}]}]}
